# Assay results published in ChEMBL document CHEMBL3885861, “Open TG-GATES”.
# Species on record: Rattus norvegicus
# Experiment: Open TG-GATES - Regimen: Single
# Type: toxicity, organism-based, Sprague-Dawley
# Set-up: regimen Single, gender Male, age 6 weeks
# Conditions: in vivo, po, 300 mg/kg, route gavage, dose level Low; for APTT / Bas / Eos / Fbg / Hb / Ht / Lym / MCH / MCHC / MCV / Mono / Neu / PT / Plat / RBC / Ret / WBC: tissue Blood; for KIDNEY_L / KIDNEY_R / KIDNEY_TOTAL: tissue Kidney; for LIVER: tissue Liver; for A/G / ALP / ALT / AST / BUN / CRE / Ca / Cl / DBIL / GLC / IP / K / LDH / Na / PL / RALB / TBIL / TC / TG / TP / gamma-GTP: tissue Plasma
smiles,measurement,setting,value
CCOc1ccc(NC(=O)CC(C)O)cc1 (configuration not stated) [BUCETIN],TERMINAL_BW,3 h,213.6 g
same,APTT,3 h,15.8 s
same,Bas,3 h,0%
same,Eos,3 h,0.8%
same,Fbg,3 h,292.8 mg/dL
same,Hb,3 h,13 g/dL
same,Ht,3 h,39%
same,Lym,3 h,77.8%
same,MCH,3 h,21.4 pg
same,MCHC,3 h,33.3%
same,MCV,3 h,64.3 fL
same,Mono,3 h,2.6%
same,Neu,3 h,18.2%
same,PT,3 h,13.7 s
same,Plat,3 h,117.1 x10_4/uL
same,RBC,3 h,608.2 x10_4/ul
same,Ret,3 h,8.5%
same,WBC,3 h,68.4 x10_2/uL
same,KIDNEY_L,3 h,1 g
same,KIDNEY_R,3 h,1 g
same,KIDNEY_TOTAL,3 h,1.9 g
same,LIVER,3 h,9.6 g
same,A/G,3 h,0.9
same,ALP,3 h,1395.4 IU/L
same,ALT,3 h,33.2 IU/L
same,AST,3 h,66.8 IU/L
same,BUN,3 h,9.4 mg/dL
same,CRE,3 h,0.2 mg/dL
same,Ca,3 h,10.7 mg/dL
same,Cl,3 h,104.8 meq/L
same,DBIL,3 h,0.026 mg/dL
same,GLC,3 h,181 mg/dL
same,IP,3 h,9.1 mg/dL
same,K,3 h,4.2 meq/L
same,LDH,3 h,73.8 IU/L
same,Na,3 h,140.6 meq/L
same,PL,3 h,155.2 mg/dL
same,RALB,3 h,2.5 g/dL
same,TBIL,3 h,0.052 mg/dL
same,TC,3 h,84.4 mg/dL
same,TG,3 h,78 mg/dL
same,TP,3 h,5.4 g/dL
same,gamma-GTP,3 h,1.2 IU/L
same,TERMINAL_BW,6 h,209.9 g
same,APTT,6 h,15.2 s
same,Bas,6 h,0%
same,Eos,6 h,1%
same,Fbg,6 h,292.4 mg/dL
same,Hb,6 h,13.4 g/dL
same,Ht,6 h,40.3%
same,Lym,6 h,77%
same,MCH,6 h,20.7 pg
same,MCHC,6 h,33.4%
same,MCV,6 h,62 fL
same,Mono,6 h,2.6%
same,Neu,6 h,19%
same,PT,6 h,13.6 s
same,Plat,6 h,112.6 x10_4/uL
same,RBC,6 h,649.8 x10_4/ul
same,Ret,6 h,7.8%
same,WBC,6 h,80.5 x10_2/uL
same,KIDNEY_L,6 h,0.9 g
same,KIDNEY_R,6 h,0.9 g
same,KIDNEY_TOTAL,6 h,1.8 g
same,LIVER,6 h,8.7 g
same,A/G,6 h,0.9
same,ALP,6 h,1309.2 IU/L
same,ALT,6 h,29.8 IU/L
same,AST,6 h,65.8 IU/L
same,BUN,6 h,8 mg/dL
same,CRE,6 h,0.2 mg/dL
same,Ca,6 h,10.6 mg/dL
same,Cl,6 h,105 meq/L
same,DBIL,6 h,0.026 mg/dL
same,GLC,6 h,186 mg/dL
same,IP,6 h,10.5 mg/dL
same,K,6 h,4.3 meq/L
same,LDH,6 h,74.4 IU/L
same,Na,6 h,141.8 meq/L
same,PL,6 h,139.8 mg/dL
same,RALB,6 h,2.5 g/dL
same,TBIL,6 h,0.058 mg/dL
same,TC,6 h,77 mg/dL
same,TG,6 h,44.8 mg/dL
same,TP,6 h,5.3 g/dL
same,gamma-GTP,6 h,1.2 IU/L
same,TERMINAL_BW,9 h,206.6 g
same,APTT,9 h,18.5 s
same,Bas,9 h,0%
same,Eos,9 h,1%
same,Fbg,9 h,291.8 mg/dL
same,Hb,9 h,13.1 g/dL
same,Ht,9 h,39.5%
same,Lym,9 h,77.2%
same,MCH,9 h,20.9 pg
same,MCHC,9 h,33.3%
same,MCV,9 h,62.8 fL
same,Mono,9 h,2%
same,Neu,9 h,19.6%
same,PT,9 h,14.3 s
same,Plat,9 h,110.2 x10_4/uL
same,RBC,9 h,628.8 x10_4/ul
same,Ret,9 h,8.1%
same,WBC,9 h,59.9 x10_2/uL
same,KIDNEY_L,9 h,0.9 g
same,KIDNEY_R,9 h,0.9 g
same,KIDNEY_TOTAL,9 h,1.9 g
same,LIVER,9 h,8.1 g
same,A/G,9 h,0.9
same,ALP,9 h,1396.8 IU/L
same,ALT,9 h,31 IU/L
same,AST,9 h,68.4 IU/L
same,BUN,9 h,8.4 mg/dL
same,CRE,9 h,0.2 mg/dL
same,Ca,9 h,10.4 mg/dL
same,Cl,9 h,107.2 meq/L
same,DBIL,9 h,0.028 mg/dL
same,GLC,9 h,182 mg/dL
same,IP,9 h,10.3 mg/dL
same,K,9 h,4.3 meq/L
same,LDH,9 h,68.6 IU/L
same,Na,9 h,142.8 meq/L
same,PL,9 h,136.8 mg/dL
same,RALB,9 h,2.5 g/dL
same,TBIL,9 h,0.062 mg/dL
same,TC,9 h,77.2 mg/dL
same,TG,9 h,29.2 mg/dL
same,TP,9 h,5.4 g/dL
same,gamma-GTP,9 h,1.2 IU/L
same,TERMINAL_BW,24 h,223.3 g
same,APTT,24 h,19.1 s
same,Bas,24 h,0%
same,Eos,24 h,1%
same,Fbg,24 h,303 mg/dL
same,Hb,24 h,13.3 g/dL
same,Ht,24 h,40%
same,Lym,24 h,76.8%
same,MCH,24 h,20.9 pg
same,MCHC,24 h,33.3%
same,MCV,24 h,62.9 fL
same,Mono,24 h,3.4%
same,Neu,24 h,18.4%
same,PT,24 h,14.2 s
same,Plat,24 h,121.5 x10_4/uL
same,RBC,24 h,636.4 x10_4/ul
same,Ret,24 h,7.7%
same,WBC,24 h,109.1 x10_2/uL
same,KIDNEY_L,24 h,1 g
same,KIDNEY_R,24 h,1 g
same,KIDNEY_TOTAL,24 h,1.9 g
same,LIVER,24 h,10.8 g
same,A/G,24 h,0.9
same,ALP,24 h,1683.6 IU/L
same,ALT,24 h,38.8 IU/L
same,AST,24 h,67 IU/L
same,BUN,24 h,15.4 mg/dL
same,CRE,24 h,0.2 mg/dL
same,Ca,24 h,11.1 mg/dL
same,Cl,24 h,104.8 meq/L
same,DBIL,24 h,0.02 mg/dL
same,GLC,24 h,176.6 mg/dL
same,IP,24 h,7.7 mg/dL
same,K,24 h,4.1 meq/L
same,LDH,24 h,62.6 IU/L
same,Na,24 h,143.8 meq/L
same,PL,24 h,171.2 mg/dL
same,RALB,24 h,2.7 g/dL
same,TBIL,24 h,0.05 mg/dL
same,TC,24 h,89.2 mg/dL
same,TG,24 h,112.8 mg/dL
same,TP,24 h,5.7 g/dL
same,gamma-GTP,24 h,1 IU/L
